Measurements taken from US5219884A, “Immunosuppressant” (Taito Co., Ltd., priority 1990, dated 1993).
Read-outs that look alike come from different tables or passages of the source.

How the values were obtained:
HL60 = experiment: in vitro; type: cell-based, human
K562 = experiment: in vitro; type: cell-based, human
in vitro = type: cell-based, human; conditions: human, read-out: Suppression
KB = experiment: in vitro; type: cell-based, human
CCRF-CEM = experiment: in vitro; type: cell-based, human
PC-14 = experiment: in vitro; type: cell-based, human
U937 = experiment: in vitro; type: cell-based, human
[1] = test system: mouse allogenic mixed lymphocyte reaction (BALB/c responder, C57BL/6 stimulator spleen cells); experiment: mouse allogenic mixed lymphocyte reaction (MLR), blastogenesis by 3H-thymidine uptake; type: cell-based
MOLT4 = experiment: cytotoxicity to tumor cell line MOLT4; type: cell-based, human
Summary of the method: (§1)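 Human tumour lines at 2×10^5 cells/ml in RPMI1640 with 20% FCS were mixed 1:1 with test solution and cultured 72 h at 37° C, 5% CO2. MTT colorimetry at 550 nm; percent suppression served as the cytotoxicity index.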

[2] = cytotoxicity to tumor cell line MOLT4; type: cell-based, human; conditions: human, molt4 cells, read-out: Suppression
Summary of the method: as §1

[3] = cytotoxicity to mouse L929 cells; type: cell-based; conditions: mouse, l929 cells, read-out: Suppression
mouse L929 cells = experiment: cytotoxicity to mouse L929 cells; type: cell-based; conditions: 550 nm

Structure (SMILES): CCCCCCC(O)CCCCCCCCCC(O)C(O)C(N)(CO)C(=O)O (stereo not drawn) [Example 9]
- Absorbancy (HL60; 0.1 μg/ml): 0.450
- Absorbancy (HL60; 1.0 μg/ml): 0.435
- Absorbancy (HL60; 10.0 μg/ml): 0.413
- Absorbancy (K562; 0.1 μg/ml): 0.378
- Absorbancy (K562; 1.0 μg/ml): 0.364
- Absorbancy (K562; 10.0 μg/ml): 0.317
- cytotoxicity at 72 h (in vitro; ccrf-cem cells, 0.1 μg/ml): 0%
- cytotoxicity at 72 h (in vitro; ccrf-cem cells, 1.0 μg/ml): 0%
- cytotoxicity at 72 h (in vitro; ccrf-cem cells, 10.0 μg/ml): 1.7%
- cytotoxicity at 72 h (in vitro; hl60 cells, 0.1 μg/ml): 13.8%
- cytotoxicity at 72 h (in vitro; hl60 cells, 1.0 μg/ml): 16.7%
- cytotoxicity at 72 h (in vitro; hl60 cells, 10.0 μg/ml): 20.9%
- cytotoxicity at 72 h (in vitro; k562 cells, 0.1 μg/ml): 1.8%
- cytotoxicity at 72 h (in vitro; k562 cells, 1.0 μg/ml): 5.5%
- cytotoxicity at 72 h (in vitro; k562 cells, 10.0 μg/ml): 17.7%
- cytotoxicity at 72 h (in vitro; kb cells, 0.1 μg/ml): 0%
- cytotoxicity at 72 h (in vitro; kb cells, 1.0 μg/ml): 0%
- cytotoxicity at 72 h (in vitro; kb cells, 10.0 μg/ml): 4.7%
- cytotoxicity at 72 h (in vitro; pc-14 cells, 0.1 μg/ml): 14.8%
- cytotoxicity at 72 h (in vitro; pc-14 cells, 1.0 μg/ml): 7%
- cytotoxicity at 72 h (in vitro; pc-14 cells, 10.0 μg/ml): 21.1%
- cytotoxicity at 72 h (in vitro; u937 cells, 0.1 μg/ml): 0%
- cytotoxicity at 72 h (in vitro; u937 cells, 1.0 μg/ml): 0%
- cytotoxicity at 72 h (in vitro; u937 cells, 10.0 μg/ml): 0%
- Absorbancy (KB; 0.1 μg/ml): 0.778
- Absorbancy (KB; 1.0 μg/ml): 0.762
- Absorbancy (KB; 10.0 μg/ml): 0.696
- Absorbancy (CCRF-CEM; 0.1 μg/ml): 0.702
- Absorbancy (CCRF-CEM; 1.0 μg/ml): 0.696
- Absorbancy (CCRF-CEM; 10.0 μg/ml): 0.680
- Absorbancy (PC-14; 0.1 μg/ml): 0.404
- Absorbancy (PC-14; 1.0 μg/ml): 0.441
- Absorbancy (PC-14; 10.0 μg/ml): 0.374
- Absorbancy (U937; 0.1 μg/ml): 0.640
- Absorbancy (U937; 1.0 μg/ml): 0.592
- Absorbancy (U937; 10.0 μg/ml): 0.584
- 3H-thymidine uptake ([1]; 0.001 μg/ml): 25682 cpm
- 3H-thymidine uptake ([1]; 0.01 μg/ml): 23668 cpm
- 3H-thymidine uptake ([1]; 0.1 μg/ml): 3167 cpm
- inhibition at 0.001 µg/mL ([1]; Mus musculus, Lymphocyte, 0.001 μg/ml, read-out: Suppression): 7.5%
- inhibition at 0.01 µg/mL ([1]; Mus musculus, Lymphocyte, 0.01 μg/ml, read-out: Suppression): 17.1%
- inhibition at 0.1 µg/mL ([1]; Mus musculus, Lymphocyte, 0.1 μg/ml, read-out: Suppression): 100%
- Absorbancy (MOLT4; 0.1 μg/ml): 0.111
- Absorbancy (MOLT4; 1.0 μg/ml): 0.132
- Absorbancy (MOLT4; 10.0 μg/ml): 0.142
- cytotoxicity at 72 h ([2]; 0.1 μg/ml): 23.4%
- cytotoxicity at 72 h ([2]; 1.0 μg/ml): 9%
- cytotoxicity at 72 h ([2]; 10.0 μg/ml): 2.1%
- cytotoxicity at 48 h ([3]; 1 μg/ml): 0%
- cytotoxicity at 48 h ([3]; 10 μg/ml): 0%
- cytotoxicity at 48 h ([3]; 100 μg/ml): 1%
- Absorbancy (mouse L929 cells; 1 μg/ml): 0.749
- Absorbancy (mouse L929 cells; 10 μg/ml): 0.747
- Absorbancy (mouse L929 cells; 100 μg/ml): 0.567
